# Test results published in ChEMBL document CHEMBL4184156, “Repurposing Hsp90 inhibitors as antibiotics targeting histidine kinases” (Bioorg Med Chem Lett, 2017).
# Activity calls are given as the source filed them. No cut-off for these calls is given here.
# B1: Cell cycle histidine kinase CckA (Caulobacter vibrioides), Q9X688 (protein)
# chain: MADLQLQDKVSTGAPRRRFDPWLVGAAVFFVAAAALSAAPALKAGPTTLAGLLLLLGVAGVAVLGLVAIRGSALSGGDADQAEGFIEALAEPAALAAADGRVLAANGPWREVMGEQRRLPKGVAGSSLFAALVQARQGQMAEGMLSAGGTDYTAKVSRLAGGRLMIRLAPIVVAEPVVEDASPAPVAERAAPPPSSLDAFAGASPFGAALLEGLEPFTSRVLETNPALTTMTGAKAGVLFGDLIDAASRAEAETRLNEGRAGPYEVRLARDPSRIAHLYLYRAEGRLVAYMIDVSEQKQIELQLSQAQKMQAIGQLAGGVAHDFNNLLTAIQLRLDELLHRHPVGDPSYEGLNEIRQTGVRAADLVRKLLAFSRKQTVQREVLDLGELISEFEVLLRRLLREDVKLITDYGRDLPQVRADKSQLETAVMNLAVNARDAVRAAKGGGVVRIRTARLTRDEAIQLGFPAADGDTAFIEVSDDGPGIPPDVMGKIFDPFFTTKPVGEGTGLGLATVYGIVKQSDGWIHVHSRPNEGAAFRIFLPVYEAPAGAVAVQAVAEPAKPRAARDLSGAGRILFVEDEDAVRSVAARLLRARGYEVLEAADGEEALIIAEENAGTIDLLISDVIMPGIDGPTLLKKARGYLGTAPVMFISGYAEAEFSDLLEGETGVTFLPKPIDIKTLAERVKQQLQAA
# Experiments:
# [1] = molecular target: T1, Virulence sensor histidine kinase PhoQ (Salmonella typhimurium (strain LT2 / SGSC1412 / ATCC 700720), UniProt P0DM80); experiment: Displacement of TNP-ATP from recombinant Salmonella typhimurium GST-tagged DHp-catalytic domain PhoQ (332 to 487 residues) expressed in Escherichia coli XA90 aafter 10 mins by fluorescence assay; parameters: species or system Salmonella enterica subsp. enterica serovar Typhimurium
# T1 sequence (P0DM80 whole entry): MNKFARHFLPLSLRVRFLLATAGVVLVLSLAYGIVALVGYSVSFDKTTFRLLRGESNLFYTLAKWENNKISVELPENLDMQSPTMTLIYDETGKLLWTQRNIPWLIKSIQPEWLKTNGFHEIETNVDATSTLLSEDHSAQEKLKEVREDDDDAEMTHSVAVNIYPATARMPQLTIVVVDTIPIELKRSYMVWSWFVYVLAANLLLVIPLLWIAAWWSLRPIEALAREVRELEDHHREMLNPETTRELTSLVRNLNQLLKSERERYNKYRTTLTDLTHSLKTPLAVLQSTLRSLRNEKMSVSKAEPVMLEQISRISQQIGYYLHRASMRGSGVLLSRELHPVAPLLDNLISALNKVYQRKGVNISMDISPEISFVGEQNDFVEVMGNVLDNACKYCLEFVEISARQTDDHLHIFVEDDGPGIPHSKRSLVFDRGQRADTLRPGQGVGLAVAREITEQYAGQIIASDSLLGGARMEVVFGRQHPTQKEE
# [2] = molecular target: T2, Histidine protein kinase DivJ (Caulobacter vibrioides (strain ATCC 19089 / CB15) (Caulobactercrescentus)) (UniProt Q03228); experiment: (§1) Inhibition of recombinant Caulobacter vibrioides N-terminal His6-tagged DHp-catalytic domain DivJ (188 to 585 residues) autophosphorylation expressed in Escherichia coli BL21(DE3) at 500 uM preincubated for 10 mins followed by [gamma-32P]-ATP addition after 15 mins by phosphotransferase dot blot assay relative to control; parameters: scale not given: the % may be the effect or the level left
# T2 sequence (whole entry): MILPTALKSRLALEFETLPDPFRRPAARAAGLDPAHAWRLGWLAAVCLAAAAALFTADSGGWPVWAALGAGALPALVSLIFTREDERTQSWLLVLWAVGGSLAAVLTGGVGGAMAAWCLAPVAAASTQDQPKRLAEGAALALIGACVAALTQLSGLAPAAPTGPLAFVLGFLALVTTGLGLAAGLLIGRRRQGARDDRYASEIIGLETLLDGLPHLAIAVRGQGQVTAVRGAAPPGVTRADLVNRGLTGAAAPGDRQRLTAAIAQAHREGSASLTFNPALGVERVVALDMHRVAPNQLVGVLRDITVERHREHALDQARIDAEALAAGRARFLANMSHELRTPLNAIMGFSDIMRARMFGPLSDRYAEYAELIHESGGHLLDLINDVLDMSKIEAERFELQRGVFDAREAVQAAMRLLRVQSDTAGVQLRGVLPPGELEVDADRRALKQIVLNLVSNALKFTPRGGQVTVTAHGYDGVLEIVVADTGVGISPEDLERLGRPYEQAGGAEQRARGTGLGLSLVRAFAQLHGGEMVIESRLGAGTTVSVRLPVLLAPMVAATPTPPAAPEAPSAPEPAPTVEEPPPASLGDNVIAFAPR
# [3] = molecular target: T2, Histidine protein kinase DivJ (Caulobacter vibrioides (strain ATCC 19089 / CB15) (Caulobactercrescentus)); experiment: Inhibition of recombinant Caulobacter vibrioides N-terminal His6-tagged DHp-catalytic domain DivJ (188 to 585 residues) expressed in Escherichia coli BL21 (DE3) at 800 uM preincubated for 10 mins followed by [gamma-32P]-ATP addition after 15 mins by phosphotransferase dot blot assay
# [4] = molecular target: T2, Histidine protein kinase DivJ (Caulobacter vibrioides (strain ATCC 19089 / CB15) (Caulobactercrescentus)); experiment: Inhibition of recombinant Caulobacter vibrioides N-terminal His6-tagged DHp-catalytic domain DivJ (188 to 585 residues) expressed in Escherichia coli BL21 (DE3) at 400 uM preincubated for 10 mins followed by [gamma-32P]-ATP addition after 15 mins by phosphotransferase dot blot assay
# [5] = test system: Caulobacter vibrioides; experiment: Antibacterial activity against Caulobacter crescentus NA1000 after 24 hrs by broth dilution method; assay type: functional; details: NA1000, 24 h
# [6] = test system: Bacillus subtilis; experiment: Antibacterial activity against Bacillus subtilis YB886 after 24 hrs by broth dilution method; assay type: functional; details: YB886, 24 h
# [7] = molecular target: T3, Virulence sensor histidine kinase PhoQ (Salmonella typhimurium (strain LT2 / SGSC1412 / ATCC 700720)) (UniProt P0DM80); experiment: Inhibition of recombinant Salmonella typhimurium N-terminal His6-SUMO-tagged PhoQ (257 to 487 residues) expressed in Escherichia coli BL21 (DE3) assessed as enzyme aggregation at 800 uM after 30 mins by native-PAGE analysis; details: Salmonella enterica subsp. enterica serovar Typhimurium
# T3 sequence (whole entry): T1 sequence (P0DM80 whole entry)
# [8] = molecular target: T3, Virulence sensor histidine kinase PhoQ (Salmonella typhimurium (strain LT2 / SGSC1412 / ATCC 700720)); experiment: as §1, with “Salmonella typhimurium” for “Caulobacter vibrioides”, “His6-SUMO-tagged” for “His6-tagged”, “PhoQ (257” for “DivJ (188”, “487” for “585”, “30” for “15”; parameters: scale not given: the % may be the effect or the level left; details: Salmonella enterica subsp. enterica serovar Typhimurium
# [9] = molecular target: T4, Cell cycle histidine kinase CckA (Caulobacter vibrioides) (UniProt Q9X688); experiment: Binding affinity to recombinant Caulobacter vibrioides cell cycle histidine kinase CckA delta 3 mutant DHp domain (190 to 562 residues) expressed in Escherichia coli assessed as change in metlting temperature at 30 uM after 2 mins by SYPRO orange dye based DSF assay
# T4 sequence (whole entry): B1 chain
# [10] = molecular target: T3, Virulence sensor histidine kinase PhoQ (Salmonella typhimurium (strain LT2 / SGSC1412 / ATCC 700720)); experiment: Inhibition of recombinant Salmonella typhimurium N-terminal His6-SUMO-tagged PhoQ (257 to 487 residues) expressed in Escherichia coli BL21 (DE3) assessed as enzyme aggregation at 400 uM after 30 mins by native-PAGE analysis; details: Salmonella enterica subsp. enterica serovar Typhimurium
# [11] = test system: Escherichia coli; experiment: Antibacterial activity against Escherichia coli DC2 after 24 hrs by broth dilution method; assay type: functional; details: DC2, 24 h
# [12] = test system: Histidine protein kinase DivJ (Caulobacter vibrioides); experiment: Inhibition of recombinant Caulobacter vibrioides N-terminal His6-tagged catalytic domain DivJ (188 to 585 residues) expressed in Escherichia coli BL21 (DE3) assessed as enzyme aggregation at 400 uM after 30 mins by native-PAGE analysis
# [13] = molecular target: Cell cycle histidine kinase CckA (Caulobacter vibrioides, UniProt Q9X688); experiment: Inhibition of recombinant Caulobacter vibrioides cell cycle histidine kinase CckA deltaTM mutant DHp domain (70 to 691 residues) expressed in Escherichia coli in presence of varying levels of ATP measured every 60 secs for 2 hrs by PK/LDH enzyme coupled assay
# [14] = Inhibition of recombinant full length yeast N-terminal His-tagged Hsp90 expressed in Escherichia coli BL21 incubated overnight in presence of ATP by malachite green dye based assay; parameters: species or system Saccharomyces cerevisiae
# [15] = Hemolytic activity against sheep RBC at 0.5 mM after 30 mins relative to control; assay type: ADME, cell-based, Ovis aries, Erythrocyte; details: sheep red blood cells (erythrocytes), read-out: Activity
# [16] = molecular target: T5, Cell cycle histidine kinase CckA (Caulobacter vibrioides, UniProt Q9X688); experiment: Competitive inhibition of Caulobacter vibrioides full length wild type cell cycle histidine kinase CckA deltaTM Escherichia coli BL21-AI in presence of varying levels of ATP measured every 60 secs for 2 hrs by Lineweaver-Burk plot analysis
# T5 sequence (Q9X688 whole entry): B1 chain
# [17] = molecular target: T1, Virulence sensor histidine kinase PhoQ; experiment: Inhibition of recombinant Salmonella typhimurium N-terminal His6-SUMO-tagged DHp-catalytic domain PhoQ (257 to 487 residues) autophosphorylation expressed in Escherichia coli BL21 (DE3) preincubated for 10 mins followed by [gamma-32P]-ATP addition after 30 mins by phosphotransferase dot blot assay; parameters: species or system Salmonella enterica subsp. enterica serovar Typhimurium
# [18] = compound: COc1ccc(-c2c(C)n[nH]c2-c2cc(Cl)c(O)cc2O)cc1; experiment: Competitive inhibition of Caulobacter vibrioides full length wild type Cell cycle histidine kinase CckA deltaTM expressed in Escherichia coli BL21-AI assessed as enzyme Km in presence of varying levels of ATP measured every 60 secs for 2 hrs by Lineweaver-Burk plot analysis
Molecule,Activity [2] [%],MIC [5] [µM],MIC [6] [µM],Activity [8] [%],ΔTm [9] [°C],inhibition [10],MIC [11] [µM],IC50 [13] [µM],"hemolysis at 0.5 h, 500 µM [15] [%]",other results
CC(C)=CCc1c(O)cc2occ(Cl)c(=O)c2c1O,,,,,,,,,,Kd [1]: 391 µM
CCc1cc(-c2[nH]nc(C)c2-c2ccc3c(c2)OCCO3)c(O)cc1O,70,150 to 225,112,9,4,inactive,37.5 to 75,,,inhibition [3]: Active; inhibition [4]: inactive; inhibition [7]: inactive
COc1ccc(-c2c(C)n[nH]c2-c2cc(Cl)c(O)cc2O)cc1,118,225,150 to 225,66,5,inactive,37.5 to 75,,,inhibition [12]: inactive
C[C@@H]1C[C@H]2O[C@@H]2/C=C\C=C\C(=O)Cc2c(Cl)c(O)cc(O)c2C(=O)O1 [RADICICOL],123,> 300,> 300,86,0.9,,> 300,184,0,IC50 [14]: 0.26 µM
COc1ccc(-c2c(-c3cc(Cl)c(O)cc3O)n[nH]c2C)cc1,,,,,,,,12.3 to 14,3,Ki [16]: 3.8 µM; IC50 [17]: 238 µM
B1,,,,,,,,,,Km [18]: 17.9 µM
